Test results published in US6673793B2, “Oxazinoquinolones useful for the treatment of viral infections” (Pharmacia & Upjohn Co., priority 2000, dated 2004).

How the values were obtained:
CMV polymerase = target: T1, CMV polymerase (Human cytomegalovirus, UniProt P08546); assay: HCMV polymerase assay, scintillation proximity assay (SPA), modified version; type: biochemical; details: modified HCMV polymerase SPA assay: compounds diluted in 100% DMSO, 4.5 mM DTT in polymerase buffer, different lot of CMV polymerase; read-out: CMV polymerase IC50
T1 construct: made in house; host or cells: recombinant baculovirus-infected SF-9 cells
T1 sequence (P08546 whole entry): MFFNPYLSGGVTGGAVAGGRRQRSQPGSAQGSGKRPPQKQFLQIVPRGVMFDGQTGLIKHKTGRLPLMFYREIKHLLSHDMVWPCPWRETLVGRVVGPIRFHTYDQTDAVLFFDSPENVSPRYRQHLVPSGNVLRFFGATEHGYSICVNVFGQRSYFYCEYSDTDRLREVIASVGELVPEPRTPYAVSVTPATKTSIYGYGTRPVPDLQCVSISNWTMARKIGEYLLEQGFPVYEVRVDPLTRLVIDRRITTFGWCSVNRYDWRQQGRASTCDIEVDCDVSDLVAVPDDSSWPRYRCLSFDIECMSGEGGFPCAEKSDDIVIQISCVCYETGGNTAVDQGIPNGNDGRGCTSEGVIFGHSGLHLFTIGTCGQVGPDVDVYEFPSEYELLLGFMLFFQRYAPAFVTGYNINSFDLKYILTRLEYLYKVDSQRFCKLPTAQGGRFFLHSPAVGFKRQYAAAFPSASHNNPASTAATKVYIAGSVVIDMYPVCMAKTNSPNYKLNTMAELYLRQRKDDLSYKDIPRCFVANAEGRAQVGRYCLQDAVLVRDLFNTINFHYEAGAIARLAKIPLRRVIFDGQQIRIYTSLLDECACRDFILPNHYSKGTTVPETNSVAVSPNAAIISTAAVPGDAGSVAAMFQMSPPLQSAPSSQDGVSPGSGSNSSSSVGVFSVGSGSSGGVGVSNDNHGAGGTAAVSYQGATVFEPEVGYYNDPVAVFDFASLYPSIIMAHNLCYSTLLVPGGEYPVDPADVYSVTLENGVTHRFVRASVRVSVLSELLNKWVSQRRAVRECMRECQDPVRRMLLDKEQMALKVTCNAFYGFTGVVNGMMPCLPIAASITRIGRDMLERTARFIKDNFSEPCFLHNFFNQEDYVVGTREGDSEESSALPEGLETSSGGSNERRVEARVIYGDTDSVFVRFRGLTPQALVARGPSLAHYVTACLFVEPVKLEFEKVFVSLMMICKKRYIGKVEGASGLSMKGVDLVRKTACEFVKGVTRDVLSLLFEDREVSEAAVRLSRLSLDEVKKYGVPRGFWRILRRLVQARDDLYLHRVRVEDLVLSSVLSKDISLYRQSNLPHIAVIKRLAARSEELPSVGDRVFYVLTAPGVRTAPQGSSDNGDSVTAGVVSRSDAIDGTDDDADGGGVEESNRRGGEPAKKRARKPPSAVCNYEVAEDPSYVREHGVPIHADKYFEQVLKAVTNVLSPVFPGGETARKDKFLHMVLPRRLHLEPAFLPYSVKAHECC
Method in brief: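 Baculovirus/SF-9-expressed HCMV polymerase in SPA with 90 nM ^3H-dTTP and 6 nM biotinylated poly(dA)-oligo(dT), pH 7.5 HEPES/KCl/MgCl2/BSA, with or without 2 mM CHAPS. Runs 30 min at 25 C. or 37 C., EDTA stop, streptavidin-SPA beads counted; IC50 by linear regression. Modified version: compounds diluted in 100% DMSO rather than 50%, plus 4.5 mM DTT.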

| SMILES | IC50 (CMV polymerase) [nM] | melting point |
| --- | --- | --- |
| COCOCc1ccccc1C1Cn2cc(C(=O)NCc3ccc(Cl)cc3)c(=O)c3cc(CN4CCOCC4)cc(c32)O1 (stereo not drawn) [Example 66, N-(4-Chlorobenzyl)-2-{2-[(methoxymethoxy)methyl]phenyl}-9-(morpholin-4-ylmethyl)-7-oxo-2,3-dihydro-7H-[1,4]oxazino[2,3,4-ij]quinoline-6-carboxamide] | 590 | 202.5 to 204.5 °C |
| COCOCc1ccc(C2Cn3cc(C(=O)NCc4ccc(Cl)cc4)c(=O)c4cc(CN5CCOCC5)cc(c43)O2)cc1 (stereo not drawn) [Example 67, N-(4-Chlorobenzyl)-2-{4-[(methoxymethoxy)methyl]phenyl}-9-(morpholin-4-ylmethyl)-7-oxo-2,3-dihydro-7H-[1,4]oxazino[2,3,4-ij]quinoline-6-carboxamide] | 1690 | 236 to 239 °C |
| O=C(NCc1ccc(Cl)cc1)c1cn2c3c(cc(CN4CCOCC4)cc3c1=O)OC(c1ccccc1CO)C2 (stereo not drawn) [Example 69, N-(4-Chlorobenzyl)-2-[2-(hydroxymethyl)phenyl]-9-(morpholin-4-ylmethyl)-7-oxo-2,3-dihydro-7H-[1,4]oxazino[2,3,4-ij]quinoline-6-carboxamide] | 330 | 218 to 223 °C (dec.) |
